According to ChEMBL document CHEMBL2094269, “WEHI/Eskitis Trypanosoma b. brucei screening data”:
pIC50: −log10 of the molar value.

How the values were obtained:
[1] = DNDI: Cytotoxicity against human MRC-5 lung fibroblast cells.; conditions: IC50
[2] = system: Trypanosoma brucei brucei; assay: microbe, parasite or virus in culture; assay type: functional, organism-based, STIB 795; conditions: Trypanosoma brucei, STIB 795
Description: DNDI: Inhibition of Human African Trypanosomiasis (HAT), STIB 795, in vitro

| Structure (SMILES) | pIC50 [1] | pIC50 [2] |
| --- | --- | --- |
| Cc1cc(NCCN2CCOCC2)c2ccc3ccccc3c2n1 | < 4.68 | 5.31 |
| CC(C)(C)c1ccc(OCCCCCCN2CCNCC2)cc1 | < 4.68 | 6.13 |
| CCN(CC)CCn1nc2c3c(cccc3c1=O)-c1ccccc1-2 | 5.84 | 5.80 |
| NCC12CC3CC(C1)CC(c1ccc(Br)cc1)(C3)C2 | 5.17 | 6.16 |
| Cc1ccccc1C(O)(Cc1ccccc1)C1CN2CCC1CC2 (stereo not drawn) | < 5.38 | 5.33 |
| COc1ccc(CNCCc2c[nH]c3ccccc23)c(OC)c1C | < 4.68 | 5.28 |
| COc1ccc(C(=O)O/N=C(\N)Cc2cccs2)cc1OC | < 4.68 | 5.79 |
| C=CCc1ccc(OCCCCCN2CCNCC2)c(OC)c1 | < 4.38 | 5.50 |
| C=CCNCCCCOc1ccc(Br)cc1Cl | < 4.38 | 5.31 |
| Cn1ccnc1Sc1cnn(-c2ccccc2)c(=O)c1Cl | < 4.68 | 5.28 |
| N/C(=N\OC(=O)c1ccccc1Br)c1ccccc1 | < 4.68 | 5.58 |
| Clc1ccc(CCNCc2c[nH]c3ccccc23)c(Cl)c1 | < 4.68 | 5.27 |
| Cc1nn2c(=O)cc(-c3ccc(F)cc3)[nH]c2c1-c1ccccc1 | 5.62 | 6.04 |
| CC(C)N1C/C(=C/c2ccccn2)C(=O)/C(=C/c2ccccn2)C1 | 5.24 | 6.63 |
| CC(C)(C)c1ccc(CN2CCCn3c2nc2ccccc23)cc1 | < 4.68 | 5.25 |
| Cc1cccc(CN2CCN(Cc3c[nH]c4ccccc34)CC2)c1 | < 4.68 | 5.28 |
| CCOc1cc(CNCCc2cccc(Cl)c2)ccc1OC | < 4.68 | 5.32 |
| O=C(NNC(=O)c1ccccn1)c1cccc(Br)c1 | < 5.38 | 5.76 |
| COc1ccc(C/C(N)=N/OC(=O)c2cccs2)cc1OC | < 4.38 | 5.32 |
| Cc1cc(C)c2nc(C)cc(Nc3ccc4c(c3)OCCO4)c2c1 | < 4.38 | 5.41 |

| Structure (SMILES) | pIC50 [1] | pIC50 [2] |
| --- | --- | --- |
| Cc1c(-c2cccc3c2OC(C)(C)C3)ccc2nc(N)nc(N)c12 | < 5.38 | ≥ 5.71 |
| CC(C)(C)OC(=O)N/N=C\c1ccc(-c2cccc(Cl)c2)o1 | < 4.38 | 5.13 |
| Nc1nc(NN2CCCCC2)nc(-c2cc(Cl)ccc2O)n1 | < 4.68 | 5.38 |
| CCc1cc(C2CCCN2C(=O)c2c(F)cccc2Cl)on1 (stereo not drawn) | < 4.38 | 5.29 |
| Oc1c(Br)cc(CN2CCOCC2)c2cccnc12 | < 4.68 | 5.96 |
| COC(=O)c1cn(NC(=O)c2ccccn2)c(=O)c2ccccc12 | < 4.98 | 6.20 |
| CC(C)(C)c1ccc(Cn2c(=N)n(CCO)c3ccccc32)cc1 | < 4.38 | 5.30 |
| Cc1ccccc1OCCn1c(=N)n(CC(C)C)c2ccccc21 | < 4.68 | 5.25 |
| Cc1nnc(N/N=C/c2cc(Br)ccc2O)nc1O | 5.47 | 5.52 |
| CC(C)CC(=O)/C(=C/c1ccc(Cl)cc1Cl)n1cncn1 | < 4.68 | 5.64 |
| CC1(C)CC(=O)C/C(=N/NC(=O)c2cc3ccccc3cc2O)C1 | < 4.38 | > 7.00 |
| COc1cccc(NC(=O)CSc2cccc3cccnc23)c1 | < 4.38 | 5.24 |
| N#Cc1ccc(-c2ccncc2)nc1SCCN1CCCCC1 | < 4.38 | 5.13 |
| O=C(N/N=C/c1ccc(-c2ccccc2Cl)o1)c1ccccc1 | < 4.38 | > 8.40 |
| O=C(N/N=C/c1ccc(Cl)cc1Cl)c1ccc(O)c(O)c1 | < 4.68 | 5.81 |
| CCn1nc(/C=C/c2ccccc2)[n+]([O-])c2c(=O)n(C)c(=O)nc1-2 | < 4.68 | 5.44 |
| CNCCC(Sc1ccc(C(F)(F)F)cc1)c1ccccc1 (stereo not drawn) | < 4.68 | 5.72 |
| CC(C)(C)c1ccc2c(c1)OCCOCCOCCOCCO2 | < 4.68 | 5.28 |
| Cc1cc(NCCN2CCCCC2)c2ccc3ccccc3c2n1 | < 4.68 | 5.61 |
